Measured values reported in PMC11005723, “Development of Complementary Photo‐arginine/lysine to Promote Discovery of Arg/Lys hPTMs Interactomes” (Advanced Science, 2024).
Non-standard residues stand in square brackets, D forms with d. No end group written: not given here. *: point of attachment. Biotin = O=C1N[C@H]2[C@H](CS[C@H]2CCCCC(=O)*)N1; R(dz) = photo-arginine

Tested on: HEK293T nuclear lysates
Assay: SILAC‐based pull‐down proteomics H4K5me1/H4K5 (probes 6/5)
Format: binding, human
Details: for B6 log2 (H4K5me/H4K5): run B6; for C6 log (H4K5me/H4K5): run C6

probe 6: H4K5me peptide probe with photo‐arginine R(dz) and K(biotin) (SG[R(dz)]GK(Me)GGKGLGKGGK(Biotin))
proteins recruited (SILAC proteomics H4K5me1/H4K5) (10 µµ probe, 365 nm UV 30 min, streptavidin enrichment, n = 2): could recruit L3MBTL2
B6 log2 (H4K5me/H4K5) (protein A0A0B4J1Z1 SRSF7): 0.2308
C6 log (H4K5me/H4K5) (protein A0A0B4J1Z1 SRSF7): 0.1007
B6 log2 (H4K5me/H4K5) (protein A0A0C4DG89 DDX46): 0.248
C6 log (H4K5me/H4K5) (protein A0A0C4DG89 DDX46): 0.4939
B6 log2 (H4K5me/H4K5) (protein A0A0C4DG98 THOC2): 0.2302
C6 log (H4K5me/H4K5) (protein A0A0C4DG98 THOC2): -0.4085
B6 log2 (H4K5me/H4K5) (protein A0A2R8Y5G6 DDX3X): 0.1671
C6 log (H4K5me/H4K5) (protein A0A2R8Y5G6 DDX3X): 0.08362
B6 log2 (H4K5me/H4K5) (protein A0A2R8Y855 SMARCE1): 0.1691
C6 log (H4K5me/H4K5) (protein A0A2R8Y855 SMARCE1): 0.1589
B6 log2 (H4K5me/H4K5) (protein A0A087WWS1 THOC1): 0.1897
C6 log (H4K5me/H4K5) (protein A0A087WWS1 THOC1): 0.01015
B6 log2 (H4K5me/H4K5) (protein A0A087X2G1 DDX1): 0.2376
C6 log (H4K5me/H4K5) (protein A0A087X2G1 DDX1): 0.1483
B6 log2 (H4K5me/H4K5) (protein B1AK87 CAPZB): 0.2362
C6 log (H4K5me/H4K5) (protein B1AK87 CAPZB): 0.1912
B6 log2 (H4K5me/H4K5) (protein C9JFR7 CYCS): 0.1664
C6 log (H4K5me/H4K5) (protein C9JFR7 CYCS): 0.2306
B6 log2 (H4K5me/H4K5) (protein E5RJR5 SKP1): 0.2613
C6 log (H4K5me/H4K5) (protein E5RJR5 SKP1): 0.4362
B6 log2 (H4K5me/H4K5) (protein E9PCY7 HNRNPH1): 0.1643
C6 log (H4K5me/H4K5) (protein E9PCY7 HNRNPH1): -0.04567
B6 log2 (H4K5me/H4K5) (protein E9PHA2 NCAPH): 0.2207
C6 log (H4K5me/H4K5) (protein E9PHA2 NCAPH): -0.3454
B6 log2 (H4K5me/H4K5) (protein F5GYN4 OTUB1): 0.1534
C6 log (H4K5me/H4K5) (protein F5GYN4 OTUB1): -0.02948
B6 log2 (H4K5me/H4K5) (protein F5H8F7 ASH2L): 0.1889
C6 log (H4K5me/H4K5) (protein F5H8F7 ASH2L): 0.02508
B6 log2 (H4K5me/H4K5) (protein F8VRQ1 HNRNPA1): 0.2132
C6 log (H4K5me/H4K5) (protein F8VRQ1 HNRNPA1): 0.1279
B6 log2 (H4K5me/H4K5) (protein G3V4C1 HNRNPC): 0.1754
C6 log (H4K5me/H4K5) (protein G3V4C1 HNRNPC): 0.1012
B6 log2 (H4K5me/H4K5) (protein G3V529 DDX24): 0.1507
C6 log (H4K5me/H4K5) (protein G3V529 DDX24): -0.9684
B6 log2 (H4K5me/H4K5) (protein J3KTA4 DDX5): 0.1484
C6 log (H4K5me/H4K5) (protein J3KTA4 DDX5): 0.164
B6 log2 (H4K5me/H4K5) (protein M0R3H0 RPS16): 0.2369
C6 log (H4K5me/H4K5) (protein M0R3H0 RPS16): -0.3242
B6 log2 (H4K5me/H4K5) (protein O00567 NOP56): 0.2329
C6 log (H4K5me/H4K5) (protein O00567 NOP56): 0.2086
B6 log2 (H4K5me/H4K5) (protein O14980 XPO1): 0.2117
C6 log (H4K5me/H4K5) (protein O14980 XPO1): -0.03544
B6 log2 (H4K5me/H4K5) (protein O15042 U2SURP): 0.1992
C6 log (H4K5me/H4K5) (protein O15042 U2SURP): 0.3265
B6 log2 (H4K5me/H4K5) (protein O43143 DHX15): 0.2048
C6 log (H4K5me/H4K5) (protein O43143 DHX15): 0.2816
B6 log2 (H4K5me/H4K5) (protein O43290 SART1): 0.229
C6 log (H4K5me/H4K5) (protein O43290 SART1): 0.0852
B6 log2 (H4K5me/H4K5) (protein O43395 PRPF3): 1.011
C6 log (H4K5me/H4K5) (protein O43395 PRPF3): 1.011
B6 log2 (H4K5me/H4K5) (protein O43491 EPB41L2): 0.1873
C6 log (H4K5me/H4K5) (protein O43491 EPB41L2): 0.1809
B6 log2 (H4K5me/H4K5) (protein O43719 HTATSF1): 0.2156
C6 log (H4K5me/H4K5) (protein O43719 HTATSF1): 0.1171
B6 log2 (H4K5me/H4K5) (protein O43929 ORC4): 0.2071
C6 log (H4K5me/H4K5) (protein O43929 ORC4): 0.2724
B6 log2 (H4K5me/H4K5) (protein O60216 RAD21): 0.1881
C6 log (H4K5me/H4K5) (protein O60216 RAD21): 0.2602
B6 log2 (H4K5me/H4K5) (protein O60934 NBN): 0.1747
C6 log (H4K5me/H4K5) (protein O60934 NBN): 0.1942
B6 log2 (H4K5me/H4K5) (protein O75525 KHDRBS3): 0.1909
C6 log (H4K5me/H4K5) (protein O75525 KHDRBS3): 0.05512
B6 log2 (H4K5me/H4K5) (protein O95202 LETM1): 0.2397
C6 log (H4K5me/H4K5) (protein O95202 LETM1): 0.3564
B6 log2 (H4K5me/H4K5) (protein O95218 ZRANB2): 0.1711
C6 log (H4K5me/H4K5) (protein O95218 ZRANB2): 0.2764
B6 log2 (H4K5me/H4K5) (protein O95456 PSMG1): 0.8105
C6 log (H4K5me/H4K5) (protein O95456 PSMG1): 0.8105
B6 log2 (H4K5me/H4K5) (protein O95983 MBD3): 0.1485
C6 log (H4K5me/H4K5) (protein O95983 MBD3): 0.1715
B6 log2 (H4K5me/H4K5) (protein P06748 NPM1): 0.1928
C6 log (H4K5me/H4K5) (protein P06748 NPM1): 0.1848
B6 log2 (H4K5me/H4K5) (protein P07900 HSP90AA1): 0.1623
C6 log (H4K5me/H4K5) (protein P07900 HSP90AA1): 0.0357
B6 log2 (H4K5me/H4K5) (protein P09661 SNRPA1): 0.1608
C6 log (H4K5me/H4K5) (protein P09661 SNRPA1): 0.0265
B6 log2 (H4K5me/H4K5) (protein P11142 HSPA8): 0.1602
C6 log (H4K5me/H4K5) (protein P11142 HSPA8): 0.128
B6 log2 (H4K5me/H4K5) (protein P11388 TOP2A): 0.1715
C6 log (H4K5me/H4K5) (protein P11388 TOP2A): -0.2242
B6 log2 (H4K5me/H4K5) (protein P12004 PCNA): 0.186
C6 log (H4K5me/H4K5) (protein P12004 PCNA): 0.08942
B6 log2 (H4K5me/H4K5) (protein P19338 NCL): 0.2437
C6 log (H4K5me/H4K5) (protein P19338 NCL): 0.2101
B6 log2 (H4K5me/H4K5) (protein P22061 PCMT1): 0.8673
C6 log (H4K5me/H4K5) (protein P22061 PCMT1): 0.8673
B6 log2 (H4K5me/H4K5) (protein P22087 FBL): 0.1734
C6 log (H4K5me/H4K5) (protein P22087 FBL): 0.2534
B6 log2 (H4K5me/H4K5) (protein P22102 GART): 0.1557
C6 log (H4K5me/H4K5) (protein P22102 GART): -0.03854
B6 log2 (H4K5me/H4K5) (protein P25398 RPS12): 0.2482
C6 log (H4K5me/H4K5) (protein P25398 RPS12): 0.204
B6 log2 (H4K5me/H4K5) (protein P29692 EEF1D): 0.1672
C6 log (H4K5me/H4K5) (protein P29692 EEF1D): -0.1339
B6 log2 (H4K5me/H4K5) (protein P31153 MAT2A): 0.1703
C6 log (H4K5me/H4K5) (protein P31153 MAT2A): 0.05667
B6 log2 (H4K5me/H4K5) (protein P42166 TMPO): 0.2154
C6 log (H4K5me/H4K5) (protein P42166 TMPO): 0.1594
B6 log2 (H4K5me/H4K5) (protein P46109 CRKL): 0.2247
